Measurements as given in patent US20150126534A1, “ENZYME AND RECEPTOR MODULATION” (Chroma Therapeutics Ltd, priority 2005, published 2015).
Blank lines part the entries; values can stand above or below the molecule they belong to.

Experiments:
[1] = tested on: U937 cells (monocytic cell line); assay: Cell proliferation inhibition assay (WST-1), U937; type: cell-based; details: for IC50: Homo sapiens, U-937, read-out: Cell proliferation IC50 nM (U937 cells); for selectivity between a monocytic and non-monocytic cell line (cell proliferation): U937 versus HCT116
Experimental: (§1) Following 24 h of growth cells were treated with compound. Plates were then re-incubated for a further 72-96 h before a WST-1 cell viability assay was conducted according to the suppliers (Roche Applied Science) instructions.
(§2) Data were expressed as a percentage inhibition of the control, measured in the absence of inhibitor, as follows: —
(§3) where S^i is the signal in the presence of inhibitor and S^o is the signal in the presence of DMSO.
(§4) Dose response curves were generated from 8 concentrations (top final concentration 10 μM, with 3-fold dilutions), using 6 replicates.

[2] = tested on: HCT116 (non-monocytic cell line); assay: Cell proliferation inhibition assay (WST-1), HCT116; type: cell-based; details: for Ratio IC50 cell/enzyme: HCT116 cell proliferation IC50 / DHFR enzyme IC50; for IC50: Homo sapiens, HCT-116, HCT116 non-monocytic cell line, read-out: Cell proliferation IC50 nM (HCT116)
Experimental: as §1, §2, §3, §4

[3] = tested on: carboxylesterase (U937 cell extract); assay: Broken cell carboxylesterase assay, U937 cell extract; type: in vitro ADME; details: U937 versus HCT116
Experimental: U937 or HCT 116 tumour cells (˜10^9) were washed in 4 volumes of Dulbeccos PBS (˜1 litre) and pelleted at 525 g for 10 min at 4° C. This was repeated twice and the final cell pellet was resuspended in 35 ml of cold homogenising buffer (Trizma 10 mM, NaCl 130 mM, CaCl2 0.5 mM pH 7.0 at 25° C.). Homogenates were prepared by nitrogen cavitation (700 psi for 50 min at 4° C.). The homogenate was kept on ice and supplemented with a cocktail of inhibitors at final concentrations of: • Leupeptin 1 μM • Aprotinin 0.1 μM • E64 8 μM • Pepstatin 1.5 μM • Bestatin 162 μM • Chymostatin 33 μM
After clarification of the cell homogenate by centrifugation at 525 g for 10 min, the resulting supernatant was used as a source of esterase activity and was stored at −80° C. until required.
Hydrolysis of esters to the corresponding carboxylic acids can be measured using the cell extract, prepared as above. To this effect cell extract (˜30 μg/total assay volume of 0.5 ml) was incubated at 37° C. in a Tris-HCl 25 mM, 125 mM NaCl buffer, pH 7.5 at 25° C. At zero time the ester (substrate) was then added at a final concentration of 2.5 μM and the samples were incubated at 37° C. for the appropriate time (usually 0 or 80 min). […] After centrifugation at 12000 g for 5 min, samples were analysed for the ester and its corresponding carboxylic acid at room temperature by LCMS (Sciex API 3000, HP1100 binary pump, CTC PAL). […]

[4] = tested on: HDAC - Hela cell nuclear extract; assay: Histone deacetylase inhibitory activity assay (Fluor de Lys); type: biochemical; details: read-out: Enzyme inhibition IC50 nM (HDAC - Hela cell nuclear extract)
Experimental: The ability of compounds to inhibit histone deacetylase activities was measured using the commercially available HDAC fluorescent activity assay from Biomol. […] Histone deacetylase activity from crude nuclear extract derived from HeLa cells was used for screening. The preparation, purchased from 4C (Seneffe, Belgium), was prepared from HeLa cells harvested whilst in exponential growth phase. […] Acid. […] The final buffer composition was 20 mM Hepes, 100 mM KCl, 0.2 mM EDTA, 0.5 mM DTT, 0.2 mM PMSF and 20% (v/v) glycerol.

[5] = molecular target: T1, PI 3-kinase γ (Homo sapiens, UniProt P48736); assay: PI 3-kinase γ inhibition assay (HTRF); type: biochemical; details: 100 μM MgATP; read-out: Enzyme inhibition IC50 nM (PI3-Kinase)
T1 construct: recombinant N-terminally His6-tagged, full length human enzyme; His6 (N); purchased Upstate (Dundee, UK), assay run by the vendor; host or cells: baculovirus / Sf21 insect cells
Description: The measurement of PI 3-kinase γ activity is dependent upon the specific and high affinity binding of the GRP1 pleckstrin homology (PH) domain to PIP3, the product of PI 3-kinase activity. A complex is formed between europium-labelled anti-GST monoclonal antibody, a GST-tagged GRP1 PH domain, biotinylated PIP3 and streptavidin-allophycocyanin (APC). This complex generates a stable time-resolved fluorescence resonance energy transfer (FRET) signal, which is diminished by competition of PIP3, generated in the PI 3-kinase assay, with the biotinylated PIPS.
The reaction was initiated by the addition of the MgATP mix. After incubation for 30 minutes at room temperature, the reaction was stopped by the addition of 5 μl of stop solution containing EDTA and biotinylated phosphatidylinositol-3,4,5-trisphosphate. Finally, 5 μl of detection buffer was added, which contained europium-labelled anti-GST monoclonal antibody, GST-tagged GRP1 PH domain and streptavidin-APC. The plate was then read in time-resolved fluorescence mode and the homogenous time-resolved fluorescence (HTRF) signal was determined according to the formula HTRF=10000×(Em665 nm/Em620 nm).
Duplicate data points were generated from a ½ log dilution series of a stock solution of compound in DMSO. Nine dilutions steps were made from a top final concentration of 10 μM, and a ‘no compound’ blank was included. HTRF ratio data were transformed into % activity of controls and analysed with a four parameter sigmoidal dose-response (variable slope) application. The concentration giving 50% inhibition (1050) was determined.

[6] = tested on: TNFα production in human whole blood; assay: LPS-stimulation of human whole blood, TNF-α ELISA; type: cell-based; details: for IC50: Homo sapiens, LPS 100 ng/ml, 6 h, read-out: Inhibition of TNFα production in human whole blood IC50; for Ratio IC50 WB/enzyme: whole blood TNFα IC50 / PI3-Kinase IC50
Experimental: Whole blood was taken by venous puncture using heparinised vacutainers (Becton Dickinson) and diluted in an equal volume of RPMI1640 tissue culture media. 100 μl was plated in V-bottomed 96 well tissue culture plates. Inhibitor was added in 100 μl of RPMI1640 media, and 2 h later the blood was stimulated with LPS (E coli strain 005:B5, Sigma) at a final concentration of 100 ng/ml and incubated at 37° C. in 5% CO2 for 6 h. TNF-α levels were measured from cell-free supernatants by sandwich ELISA (R&D Systems #QTA00B).

[7] = U937 cell proliferation IC50 / DHFR enzyme IC50

T1 sequence (P48736 whole entry): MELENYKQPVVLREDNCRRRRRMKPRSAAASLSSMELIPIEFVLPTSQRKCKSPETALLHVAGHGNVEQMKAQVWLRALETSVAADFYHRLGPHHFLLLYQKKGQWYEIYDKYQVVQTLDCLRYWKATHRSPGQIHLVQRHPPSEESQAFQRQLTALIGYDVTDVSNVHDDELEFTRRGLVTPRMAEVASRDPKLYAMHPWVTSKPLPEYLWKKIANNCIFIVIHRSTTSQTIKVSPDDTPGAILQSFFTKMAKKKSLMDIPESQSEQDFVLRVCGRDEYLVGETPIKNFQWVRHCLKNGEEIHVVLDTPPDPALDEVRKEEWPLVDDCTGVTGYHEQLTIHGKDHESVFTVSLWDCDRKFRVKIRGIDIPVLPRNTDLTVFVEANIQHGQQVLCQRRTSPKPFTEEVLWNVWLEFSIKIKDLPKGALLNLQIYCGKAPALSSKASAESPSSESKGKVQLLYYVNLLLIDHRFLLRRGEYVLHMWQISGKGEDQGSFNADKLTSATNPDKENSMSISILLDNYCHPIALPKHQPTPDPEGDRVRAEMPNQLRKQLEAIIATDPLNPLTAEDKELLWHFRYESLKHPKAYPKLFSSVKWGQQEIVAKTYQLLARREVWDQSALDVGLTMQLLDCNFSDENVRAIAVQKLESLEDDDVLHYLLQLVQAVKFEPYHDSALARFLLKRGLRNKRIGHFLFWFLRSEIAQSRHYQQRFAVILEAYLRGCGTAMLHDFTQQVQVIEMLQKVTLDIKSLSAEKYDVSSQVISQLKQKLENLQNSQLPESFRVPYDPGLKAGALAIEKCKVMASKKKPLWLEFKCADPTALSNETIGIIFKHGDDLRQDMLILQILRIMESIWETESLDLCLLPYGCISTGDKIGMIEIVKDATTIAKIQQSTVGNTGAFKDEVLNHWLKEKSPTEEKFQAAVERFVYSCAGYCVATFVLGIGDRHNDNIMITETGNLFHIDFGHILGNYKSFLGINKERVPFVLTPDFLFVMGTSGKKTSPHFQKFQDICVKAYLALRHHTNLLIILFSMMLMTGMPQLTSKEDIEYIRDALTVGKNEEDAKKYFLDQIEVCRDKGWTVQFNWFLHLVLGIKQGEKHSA

SMILES: Cc1c(CNc2ccc(OCC[C@H](NC3CCCCC3)C(=O)OC3CCCC3)cc2)cnc2nc(N)nc(N)c12 [Compound 4, (S)-2-Cyclohexylamino-4-{4-[(2,4-diamino-5-methyl-pyrido[2,3-d]pyrimidin-6-ylmethyl)-amino]-phenoxy}-butyric acid cyclopentyl ester]
IC50 ([1]; U937 monocytic cell line): 310 nM | Ratio IC50 cell/enzyme [1, 7]: 0.3 | selectivity between a monocytic and non-monocytic cell line (cell proliferation) [1]: significantly more anti-proliferative in monocytic cell lines then non-monocytic cell lines | Ratio IC50 cell/enzyme [2]: 6.6 | IC50 [2]: 6900 nM | cleavage of ester in monocytic versus non-monocytic cell lines [3]: selective cleavage in monocytic but not non-monocytic cell lines

SMILES: CC(=O)Nc1nc(C)c(-c2ccc(Cl)c(S(C)(=O)=O)c2)s1 [Compound 20, N-[5-(4-Chloro-3-methanesulfonyl-phenyl)-4-methyl-thiazol-2-yl]-acetamide, reference compound]
IC50 [5]: 500 nM | IC50 [6]: 8500 nM | Ratio IC50 WB/enzyme [6]: 17

SMILES: Cc1nc(NC(=O)CC[C@H](N)C(=O)OC(C)(C)C)sc1-c1ccc(Cl)c(S(C)(=O)=O)c1 [Compound 23, (S)-2-Amino-4-[5-(4-chloro-3-methanesulfonyl-phenyl)-4-methyl-thiazol-2-ylcarbamoyl]-butyric acid tert-butyl ester]
IC50 [5]: 7100 nM | IC50 [6]: 5200 nM | Ratio IC50 WB/enzyme [6]: 0.75

Further lines, with some results ahead:

IC50 ([1]; U937 monocytic cell line): 310 nM | IC50 [2]: 6700 nM
SMILES: Cc1c(CNc2ccc(CN[C@@H](CC(C)C)C(=O)OC3CCCC3)cc2)cnc2nc(N)nc(N)c12 [Compound 5, (S)-2-{4-[(2,4-Diamino-5-methyl-pyrido[2,3-d]pyrimidin-6-ylmethyl)-amino]-benzylamino}-4-methyl-pentanoic acid cyclopentyl ester]
Ratio IC50 cell/enzyme [1, 7]: 0.8 | selectivity between a monocytic and non-monocytic cell line (cell proliferation) [1]: significantly more anti-proliferative in monocytic cell lines then non-monocytic cell lines | Ratio IC50 cell/enzyme [2]: 1.7 | cleavage of ester in monocytic versus non-monocytic cell lines [3]: selective cleavage in monocytic but not non-monocytic cell lines

IC50 [4]: 100 nM | IC50 ([1]; U937 monocytic cell line): 50 nM
SMILES: O=C(CCCCCCC(=O)Nc1cccc(CN[C@H](C(=O)OC2CCCC2)c2ccccc2)c1)NO [Compound 8, (S)-[3-(7-Hydroxycarbamoyl-heptanoylamino)-benzylamino]-phenyl-acetic acid cyclopentyl ester]
Ratio IC50 cell/enzyme ([1]; U937 cell proliferation IC50 / HDAC enzyme IC50): 0.5

IC50 [4]: 70 nM | Cell proliferation IC50 nM (U937 cells) ([1]; U937 monocytic cell line): Inactive
SMILES: O=C(CCCCCCC(=O)Nc1cccc(CN[C@H](C(=O)O)c2ccccc2)c1)NO [Compound 9, (S)-[3-(7-Hydroxycarbamoyl-heptanoylamino)-benzylamino]-phenyl-acetic acid]

IC50 [5]: 2700 nM | IC50 [6]: 400 nM
SMILES: Cc1nc(NC(=O)CC[C@H](N)C(=O)OC2CCCC2)sc1-c1ccc(Cl)c(S(C)(=O)=O)c1 [Compound 21, (S)-2-Amino-4-[5-(4-chloro-3-methanesulfonyl-phenyl)-4-methyl-thiazol-2-ylcarbamoyl]-butyric acid cyclopentyl ester]
Ratio IC50 WB/enzyme [6]: 0.15
